Data as given in ChEMBL document CHEMBL5647694, “Novel orally bioavailable EZH1/2 dual inhibitors with greater antitumor efficacy than an EZH2 selective inhibitor” (Cancer Sci, 2017).

Assays:
[1] = biological target: Serine/threonine-protein kinase 38-like (Homo sapiens) (UniProt Q9Y2H1); experiment: Inhibition of N-terminal GST-fused full length human NDR2 (1 to 464 residues) expressed in baculovirus expression system using SGKtide as substrate at 1 uM in presence of ATP by Mobility shift assay
[2] = biological target: Interferon-induced, double-stranded RNA-activated protein kinase (Homo sapiens) (UniProt P19525); experiment: Inhibition of N-terminal GST-fused human PKR catalytic domain (252 to 551 residues) expressed in baculovirus expression system using SRPKtide as substrate at 1 uM in presence of ATP by IMAP
[3] = biological target: Serine/threonine-protein kinase 24 (Homo sapiens) (UniProt Q9Y6E0); experiment: Inhibition of N-terminal GST-fused full length human MST3 (1 to 431 residues) expressed in baculovirus expression system using Moesin-derived peptide as substrate at 1 uM in presence of ATP by Mobility shift assay
[4] = biological target: Protein kinase C theta type (Homo sapiens) (UniProt Q04759); experiment: Inhibition of N-terminal GST-fused human full length PKC-theta (1 to 706 residues ) expressed in baculovirus expression system using PKC peptide as substrate at 1 uM in presence of ATP by Mobility shift assay
[5] = biological target: Serine/threonine-protein kinase D3 (Homo sapiens) (UniProt O94806); experiment: Inhibition of N-terminal GST-fused full length human PKD3 (1 to 890 residues) expressed in baculovirus expression system using GS peptide as substrate at 1 uM in presence of ATP by Mobility shift assay
[6] = biological target: Ribosomal protein S6 kinase alpha-6 (Homo sapiens) (UniProt Q9UK32); experiment: Inhibition of N-terminal GST-fused human full length RSK4 (1 to 745 residues) expressed in baculovirus expression system using S6K peptide(N-FL) as substrate at 1 uM in presence of ATP by Mobility shift assay
[7] = biological target: Epidermal growth factor receptor (Homo sapiens) (UniProt P00533); experiment: Inhibition of N-terminal GST-fused human EGFR cytoplasmic domain (669 to 1210 residues) expressed in baculovirus-infected Sf21 cells using Srctide as substrate at 1 uM in presence of ATP by Mobility shift assay
[8] = biological target: Fibroblast growth factor receptor 2 (Homo sapiens) (UniProt P21802); experiment: Inhibition of N-terminal GST-fused human FGFR2 cytoplasmic domain (399 to 821 residues) expressed in baculovirus-infected Sf21 cells using CSKtide as substrate at 1 uM in presence of ATP by Mobility shift assay
[9] = biological target: Casein kinase I isoform alpha (Homo sapiens) (UniProt P48729); experiment: Inhibition of N-terminal GST-fused full length human CK1alpha (1 to 337 residues) expressed in baculovirus expression system using CKtide as substrate at 1 uM in presence of ATP by Mobility shift assay
[10] = biological target: Inhibitor of nuclear factor kappa-B kinase subunit beta (Homo sapiens) (UniProt O14920); experiment: Inhibition of N-terminal His-tagged truncated human IKK-beta (1 to 662 residues) expressed in baculovirus expression system using Modified IkBalpha-derived peptide as substrate at 1 uM in presence of ATP by Mobility shift assay
[11] = biological target: Serine/threonine-protein kinase Sgk3 (Homo sapiens) (UniProt Q96BR1); experiment: Inhibition of N-terminal GST-fused truncated human SGK3 (119 to 496 residues) expressed in baculovirus expression system using SGKtide as substrate at 1 uM in presence of ATP by Mobility shift assay
[12] = biological target: Serine/threonine-protein kinase 3 (Homo sapiens) (UniProt Q13188); experiment: Inhibition of N-terminal GST-fused full length human MST2 (1 to 491 residues) expressed in baculovirus expression system using IRS1 as substrate at 1 uM in presence of ATP by Mobility shift assay
[13] = biological target: Tyrosine-protein kinase Lyn (Homo sapiens) (UniProt P07948); experiment: Inhibition of N-terminal GST-tagged full length human LynA(1 to 512 residues ) expressed in baculovirus-infected Sf21 cells using Srctide as substrate at 1 uM in presence of ATP by Mobility shift assay
[14] = biological target: Tyrosine-protein kinase Fyn (Homo sapiens) (UniProt P06241); experiment: Inhibition of human FYN at 1 uM by mobility shift assay relative to control
[15] = biological target: Protein kinase C delta type (Homo sapiens) (UniProt Q05655); experiment: Inhibition of N-terminal GST-fused human full length PKC-delta (1 to 676 residues ) expressed in baculovirus expression system using PKC peptide as substrate at 1 uM in presence of ATP by Mobility shift assay
[16] = biological target: Phosphorylase b kinase gamma catalytic chain, skeletal muscle/heart isoform (Homo sapiens) (UniProt Q16816); experiment: Inhibition of N-terminal GST-fused full length human PHKG1 (1 to 387 residues) expressed in baculovirus expression system using GS peptide as substrate at 1 uM in presence of ATP by Mobility shift assay
[17] = biological target: Serine/threonine-protein kinase PLK3 (Homo sapiens) (UniProt Q9H4B4); experiment: Inhibition of N-terminal GST-fused human PLK3 catalytic domain (58 to 340 residues) expressed in baculovirus expression system using CDC25ctide as substrate at 1 uM in presence of ATP by Mobility shift assay
[18] = Inhibition of N-terminal GST-fused full length human MGC42105 (1 to 436 residues) expressed in baculovirus expression system using CHKtide as substrate at 1 uM in presence of ATP by Mobility shift assay; details: condition cancer
[19] = biological target: Tyrosine-protein kinase ABL2 (Homo sapiens) (UniProt P42684); experiment: Inhibition of N-terminal GST-fused truncated human ARG (2 to 52, 74 to 1182 residues) expressed in baculovirus-infected Sf21 cells using ABLtide as substrate at 1 uM in presence of ATP by Mobility shift assay
[20] = biological target: Mast/stem cell growth factor receptor Kit (Homo sapiens) (UniProt P10721); experiment: Inhibition of N-terminal GST-tagged human KIT cytoplasmic domain (544 to 976 residues) expressed in baculovirus-infected Sf21 cells using Srctide as substrate at 1 uM in presence of ATP by Mobility shift assay
[21] = biological target: MAP kinase-interacting serine/threonine-protein kinase 1 (Homo sapiens) (UniProt Q9BUB5); experiment: Inhibition of N-terminal GST-fused full length human MNK1 (1 to 424 residues) expressed in baculovirus expression system using RS peptide as substrate at 1 uM in presence of ATP by Mobility shift assay
[22] = biological target: Tyrosine-protein kinase JAK3 (Homo sapiens) (UniProt P52333); experiment: Inhibition of N-terminal His-tagged human JAK3 catalytic domain (795 to 1124 residues) expressed in baculovirus-infected Sf21 cells using Srctide as substrate at 1 uM in presence of ATP by Mobility shift assay
[23] = biological target: MAP/microtubule affinity-regulating kinase 3 (Homo sapiens) (UniProt P27448); experiment: Inhibition of N-terminal GST-fused full length human MARK3 (1 to 729 residues) expressed in baculovirus expression system using CHKtide as substrate at 1 uM in presence of ATP by Mobility shift assay
Chain of MAP/microtubule affinity-regulating kinase 3 (Homo sapiens) (P27448 whole entry, looked up, the tested form may be a part): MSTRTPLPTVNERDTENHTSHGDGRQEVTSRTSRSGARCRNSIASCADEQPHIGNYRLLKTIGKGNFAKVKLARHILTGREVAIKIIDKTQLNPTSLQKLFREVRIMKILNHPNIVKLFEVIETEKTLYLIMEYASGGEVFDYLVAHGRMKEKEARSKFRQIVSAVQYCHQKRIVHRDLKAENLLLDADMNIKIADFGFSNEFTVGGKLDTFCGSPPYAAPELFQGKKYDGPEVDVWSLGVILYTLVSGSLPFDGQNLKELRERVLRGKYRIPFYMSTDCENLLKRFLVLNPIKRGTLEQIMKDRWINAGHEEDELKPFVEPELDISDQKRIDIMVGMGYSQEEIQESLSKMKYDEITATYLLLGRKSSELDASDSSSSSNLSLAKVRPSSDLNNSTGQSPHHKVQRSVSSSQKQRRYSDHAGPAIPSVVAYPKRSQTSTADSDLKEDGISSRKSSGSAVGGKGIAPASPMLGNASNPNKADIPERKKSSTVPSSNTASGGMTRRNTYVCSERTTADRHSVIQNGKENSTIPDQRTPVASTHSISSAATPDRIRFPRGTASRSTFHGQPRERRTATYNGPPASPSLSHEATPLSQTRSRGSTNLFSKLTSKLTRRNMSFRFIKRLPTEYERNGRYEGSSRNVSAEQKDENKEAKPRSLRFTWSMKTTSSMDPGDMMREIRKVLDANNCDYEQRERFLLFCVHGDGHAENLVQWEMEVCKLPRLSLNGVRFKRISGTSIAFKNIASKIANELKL

Chain of Protein kinase C delta type (Homo sapiens) (Q05655 whole entry, looked up, the tested form may be a part, canonical isoform): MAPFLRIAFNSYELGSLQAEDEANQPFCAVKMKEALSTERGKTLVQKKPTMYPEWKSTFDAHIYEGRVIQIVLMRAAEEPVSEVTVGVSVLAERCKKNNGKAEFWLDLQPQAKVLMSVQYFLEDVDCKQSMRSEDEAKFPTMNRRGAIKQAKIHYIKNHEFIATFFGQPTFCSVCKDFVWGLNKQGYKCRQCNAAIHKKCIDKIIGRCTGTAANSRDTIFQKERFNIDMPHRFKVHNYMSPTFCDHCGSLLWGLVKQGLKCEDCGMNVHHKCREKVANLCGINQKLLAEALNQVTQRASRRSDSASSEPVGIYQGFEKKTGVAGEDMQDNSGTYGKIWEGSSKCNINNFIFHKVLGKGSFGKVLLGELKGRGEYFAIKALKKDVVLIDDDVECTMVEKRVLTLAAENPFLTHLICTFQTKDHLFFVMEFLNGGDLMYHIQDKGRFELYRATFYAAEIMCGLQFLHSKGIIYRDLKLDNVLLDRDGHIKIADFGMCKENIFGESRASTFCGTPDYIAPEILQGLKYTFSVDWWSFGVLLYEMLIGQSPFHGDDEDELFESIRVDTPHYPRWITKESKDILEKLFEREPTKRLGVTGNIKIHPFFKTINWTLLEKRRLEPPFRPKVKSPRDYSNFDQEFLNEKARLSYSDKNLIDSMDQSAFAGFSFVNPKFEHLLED
Chain of Serine/threonine-protein kinase 24 (Homo sapiens) (Q9Y6E0 whole entry, looked up, the tested form may be a part): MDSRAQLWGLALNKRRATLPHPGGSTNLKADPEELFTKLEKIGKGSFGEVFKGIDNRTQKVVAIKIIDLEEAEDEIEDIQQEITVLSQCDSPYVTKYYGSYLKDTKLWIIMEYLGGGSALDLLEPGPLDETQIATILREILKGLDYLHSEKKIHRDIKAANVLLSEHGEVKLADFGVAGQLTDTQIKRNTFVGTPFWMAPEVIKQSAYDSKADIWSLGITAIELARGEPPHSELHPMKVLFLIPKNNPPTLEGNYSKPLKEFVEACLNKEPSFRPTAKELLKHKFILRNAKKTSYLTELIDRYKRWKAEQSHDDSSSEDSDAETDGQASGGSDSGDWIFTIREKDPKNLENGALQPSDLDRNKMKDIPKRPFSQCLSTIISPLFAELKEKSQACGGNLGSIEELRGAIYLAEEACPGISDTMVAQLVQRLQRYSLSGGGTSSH
Chain of Serine/threonine-protein kinase 38-like (Homo sapiens) (Q9Y2H1 2-464 limits assumed): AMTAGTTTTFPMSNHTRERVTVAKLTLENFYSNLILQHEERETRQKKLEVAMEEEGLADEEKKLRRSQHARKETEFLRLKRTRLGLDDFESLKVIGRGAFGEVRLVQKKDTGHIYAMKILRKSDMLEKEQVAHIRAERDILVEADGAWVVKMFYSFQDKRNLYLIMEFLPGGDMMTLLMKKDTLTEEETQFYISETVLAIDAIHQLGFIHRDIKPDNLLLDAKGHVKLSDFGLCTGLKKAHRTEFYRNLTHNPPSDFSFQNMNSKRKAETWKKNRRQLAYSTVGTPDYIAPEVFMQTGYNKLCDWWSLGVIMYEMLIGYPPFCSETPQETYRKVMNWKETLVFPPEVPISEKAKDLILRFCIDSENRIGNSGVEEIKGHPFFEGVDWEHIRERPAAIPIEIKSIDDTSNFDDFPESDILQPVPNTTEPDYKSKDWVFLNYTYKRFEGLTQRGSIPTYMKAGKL
Chain of Mast/stem cell growth factor receptor Kit (Homo sapiens) (P10721 whole entry, the tested form may be a part): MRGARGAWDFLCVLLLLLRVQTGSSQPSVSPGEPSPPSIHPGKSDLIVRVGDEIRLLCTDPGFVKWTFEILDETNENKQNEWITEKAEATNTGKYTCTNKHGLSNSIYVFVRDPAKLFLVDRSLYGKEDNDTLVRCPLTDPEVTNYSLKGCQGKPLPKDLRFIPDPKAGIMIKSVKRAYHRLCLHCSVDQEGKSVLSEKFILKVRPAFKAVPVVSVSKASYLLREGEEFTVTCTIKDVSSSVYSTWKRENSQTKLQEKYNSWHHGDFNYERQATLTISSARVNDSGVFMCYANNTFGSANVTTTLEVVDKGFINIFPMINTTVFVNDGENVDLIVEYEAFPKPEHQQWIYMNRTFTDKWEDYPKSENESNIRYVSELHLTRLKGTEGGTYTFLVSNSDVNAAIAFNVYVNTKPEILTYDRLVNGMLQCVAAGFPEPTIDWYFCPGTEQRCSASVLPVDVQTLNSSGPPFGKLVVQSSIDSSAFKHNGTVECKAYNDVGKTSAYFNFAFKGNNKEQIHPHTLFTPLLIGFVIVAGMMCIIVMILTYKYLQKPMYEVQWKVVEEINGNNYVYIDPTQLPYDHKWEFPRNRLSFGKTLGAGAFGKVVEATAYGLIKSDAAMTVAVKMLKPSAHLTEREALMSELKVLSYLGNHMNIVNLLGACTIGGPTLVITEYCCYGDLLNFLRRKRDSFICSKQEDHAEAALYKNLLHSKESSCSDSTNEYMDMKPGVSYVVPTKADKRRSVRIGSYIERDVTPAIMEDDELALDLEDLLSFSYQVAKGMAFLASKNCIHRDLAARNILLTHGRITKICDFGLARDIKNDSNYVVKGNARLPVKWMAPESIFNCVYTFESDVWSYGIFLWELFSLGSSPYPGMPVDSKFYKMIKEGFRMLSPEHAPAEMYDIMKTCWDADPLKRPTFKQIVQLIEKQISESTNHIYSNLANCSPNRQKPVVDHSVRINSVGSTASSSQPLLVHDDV
Chain of Serine/threonine-protein kinase 3 (Homo sapiens) (Q13188 whole entry, the tested form may be a part): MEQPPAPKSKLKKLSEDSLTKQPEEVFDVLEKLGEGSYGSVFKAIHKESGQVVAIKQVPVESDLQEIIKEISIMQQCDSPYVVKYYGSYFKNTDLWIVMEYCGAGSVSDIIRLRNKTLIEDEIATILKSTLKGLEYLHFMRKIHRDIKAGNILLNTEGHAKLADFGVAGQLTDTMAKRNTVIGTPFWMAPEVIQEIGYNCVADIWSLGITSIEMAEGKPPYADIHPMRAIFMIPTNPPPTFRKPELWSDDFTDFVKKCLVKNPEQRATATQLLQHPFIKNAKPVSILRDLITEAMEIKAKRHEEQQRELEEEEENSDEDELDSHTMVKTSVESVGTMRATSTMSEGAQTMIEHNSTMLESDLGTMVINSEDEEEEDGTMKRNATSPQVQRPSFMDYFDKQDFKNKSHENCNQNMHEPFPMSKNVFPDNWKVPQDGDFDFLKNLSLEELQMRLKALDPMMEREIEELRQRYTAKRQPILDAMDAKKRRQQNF
Chain of Epidermal growth factor receptor (Homo sapiens) (P00533 whole entry, the tested form may be a part): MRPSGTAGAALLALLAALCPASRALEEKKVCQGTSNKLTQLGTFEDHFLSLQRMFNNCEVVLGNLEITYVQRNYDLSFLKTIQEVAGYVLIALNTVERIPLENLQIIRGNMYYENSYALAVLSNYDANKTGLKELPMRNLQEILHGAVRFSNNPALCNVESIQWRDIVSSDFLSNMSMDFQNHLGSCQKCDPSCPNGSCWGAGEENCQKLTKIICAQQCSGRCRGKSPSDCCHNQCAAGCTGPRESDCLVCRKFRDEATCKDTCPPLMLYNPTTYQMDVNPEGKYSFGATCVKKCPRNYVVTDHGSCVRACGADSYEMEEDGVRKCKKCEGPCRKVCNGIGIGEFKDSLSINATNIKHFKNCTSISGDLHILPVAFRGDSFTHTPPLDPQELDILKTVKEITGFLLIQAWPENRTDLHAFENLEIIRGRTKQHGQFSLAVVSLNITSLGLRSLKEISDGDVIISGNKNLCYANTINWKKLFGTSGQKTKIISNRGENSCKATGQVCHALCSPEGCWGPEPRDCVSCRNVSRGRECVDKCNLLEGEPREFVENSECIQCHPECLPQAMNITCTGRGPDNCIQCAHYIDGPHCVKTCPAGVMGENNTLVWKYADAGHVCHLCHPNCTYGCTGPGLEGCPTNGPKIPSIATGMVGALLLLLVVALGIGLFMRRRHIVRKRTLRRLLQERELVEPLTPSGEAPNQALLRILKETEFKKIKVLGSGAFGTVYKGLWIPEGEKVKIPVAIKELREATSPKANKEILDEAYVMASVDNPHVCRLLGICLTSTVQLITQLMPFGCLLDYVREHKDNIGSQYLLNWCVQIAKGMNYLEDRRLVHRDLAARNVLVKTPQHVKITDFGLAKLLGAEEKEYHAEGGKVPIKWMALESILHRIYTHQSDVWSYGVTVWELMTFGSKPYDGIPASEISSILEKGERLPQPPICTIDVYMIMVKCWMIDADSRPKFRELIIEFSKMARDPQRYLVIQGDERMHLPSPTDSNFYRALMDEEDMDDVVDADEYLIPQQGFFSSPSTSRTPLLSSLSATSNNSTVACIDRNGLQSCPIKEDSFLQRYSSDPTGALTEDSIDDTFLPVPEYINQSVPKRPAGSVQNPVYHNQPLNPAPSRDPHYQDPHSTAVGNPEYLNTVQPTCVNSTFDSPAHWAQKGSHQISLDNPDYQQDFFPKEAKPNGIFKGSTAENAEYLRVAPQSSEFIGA

## Cc1cc(C)c(CNC(=O)c2cc(Br)c3c(c2C)O[C@@](C)([C@H]2CC[C@H](N(C)C)CC2)O3)c(=O)[nH]1
[1]
  inhibition: -2.4%
[2]
  inhibition: -3%
[3]
  inhibition: -6.2%
[4]
  inhibition: 6.6%
[5]
  inhibition: 6.7%
[6]
  inhibition: -2.5%
[7]
  inhibition: -2%
[8]
  inhibition: -2.6%
[9]
  inhibition: 5.2%
[10]
  inhibition: 2.1%
[11]
  inhibition: -4.5%
[12]
  inhibition: -2.1%
[13]
  inhibition: -3.7%
[14]
  inhibition: 2.6%
[15]
  inhibition: 1.5%
[16]
  inhibition: -1.5%
[17]
  inhibition: -1.3%
[18]
  inhibition at 1 µM: -1.7%
[19]
  inhibition: -7.4%
[20]
  inhibition: -4.7%
[21]
  inhibition: -0.2%
[22]
  inhibition: -1.7%
[23]
  inhibition: 0.7%

## Cc1cc(C)c(CNC(=O)c2cc(Cl)c3c(c2C)O[C@@](C)([C@H]2CC[C@H](N(C)C)CC2)O3)c(=O)[nH]1 [VALEMETOSTAT]
[1]
  inhibition: -1.3%
[2]
  inhibition: 2.9%
[3]
  inhibition: -1.9%
[4]
  inhibition: -0.6%
[5]
  inhibition: 3.5%
[6]
  inhibition: -0.5%
[7]
  inhibition: -1.8%
[8]
  inhibition: -4%
[9]
  inhibition: 5.2%
[10]
  inhibition: -1.8%
[11]
  inhibition: 0.3%
[12]
  inhibition: -1.4%
[13]
  inhibition: -3.7%
[14]
  inhibition: 5.1%
[15]
  inhibition: 2.7%
[16]
  inhibition: -3.7%
[17]
  inhibition: -7.8%
[18]
  inhibition at 1 µM: -0.3%
[19]
  inhibition: -8.7%
[20]
  inhibition: -5.6%
[21]
  inhibition: 0.2%
[22]
  inhibition: -4%
[23]
  inhibition: 5.7%
